Laboratory results taken from US20210253557A1, “SUBSTITUTED TRIAZOLE DERIVATIVES AND USES THEREOF” (Bayer Pharma Aktiengesellschaft, priority 2017, published 2021).
Structures can show the parent of a compound that is named as a salt.

What was measured:
[1] = molecular target: T1, human V1a receptor (Homo sapiens, UniProt P37288); test: Cellular in vitro assay for determining vasopressin receptor activity (V1a, aequorin luminescence); format: cell-based; conditions: for IC50: CHO cell line transfected with the human V1a receptor, [Arg8]-vasopressin at EC50 concentration, read-out: IC50 hV1a; for ratio IC50 hV2/hV1a: selectivity ratio of IC50 hV2 to IC50 hV1a
T1 construct: expressed in transfected cells; host or cells: CHO K1 (ATCC), also stably transfected with a modified aequorin
T1 sequence (P37288 whole entry): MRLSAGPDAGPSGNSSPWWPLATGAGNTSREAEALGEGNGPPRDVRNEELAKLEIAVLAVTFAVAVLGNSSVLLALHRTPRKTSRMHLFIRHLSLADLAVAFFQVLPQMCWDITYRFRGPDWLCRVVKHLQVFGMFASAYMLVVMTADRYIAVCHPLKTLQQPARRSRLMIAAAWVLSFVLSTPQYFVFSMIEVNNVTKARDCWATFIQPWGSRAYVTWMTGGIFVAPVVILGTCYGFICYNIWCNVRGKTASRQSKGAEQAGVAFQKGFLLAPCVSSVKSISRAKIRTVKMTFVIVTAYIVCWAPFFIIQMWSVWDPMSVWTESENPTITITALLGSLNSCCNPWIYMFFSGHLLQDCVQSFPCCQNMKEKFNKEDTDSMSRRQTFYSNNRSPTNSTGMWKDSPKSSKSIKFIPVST
Protocol: (§1) B-1. Cellular In Vitro Assay for Determining Vasopressin Receptor Activity
(§2) The identification of agonists and antagonists of the V1a and V2 vasopressin receptors from humans, rats and dogs as well as the quantification of the activity of the compounds of the invention is carried out using recombinant cell lines. These cell lines originally derive from a hamster's ovary epithelial cell (Chinese Hamster Ovary, CHO K1, ATCC: American Type Culture Collection, Manassas, Va. 20108, USA). The test cell lines constitutively express the human, rat or dog V1a or V2 receptors. In case of the Gαq-coupled V1a receptors, cells are also stably transfected with a modified form of the calcium-sensitive photoproteins aequorin (human and rat V1a) or obelin (dog V1a), which, after reconstitution with the cofactor coelenterazine, emit light when there are increases in free calcium concentrations [Rizzuto R, Simpson A W, Brini M, Pozzan T, Nature 358, 325-327 (1992); Illarionov B A, Bondar V S, Illarionova V A, Vysotski E S, Gene 153 (2), 273-274 (1995)]. The resulting vasopressin receptor cells react to stimulation of the recombinantly expressed V1a receptors by intracellular release of calcium ions, which can be quantified by the resulting photoprotein luminescence. The Gs-coupled V2 receptors are stably transfected into cell lines expressing the gene for firefly luciferase under control of a CRE-responsible promoter. Activation of V2 receptors induces the activation of the CRE-responsive promoter via cAMP increase, thereby inducing the expression of firefly luciferase. The light emitted by photoproteins of V1a cell lines as well as the light emitted by firefly luciferase of V2 cell lines corresponds to the activation or inhibition of the respective vasopressin receptor. The bioluminescence of the cell lines is detected using a suitable luminometer [Milligan G, Marshall F, Rees S, Trends in Pharmacological Sciences 17, 235-237 (1996)].
Vasopressin V1a receptor cell lines:
On the day before the assay, the cells are plated out in culture medium (DMEM/F12, 2% FCS, 2 mM glutamine, 10 mM HEPES, 5 μg/ml coelenterazine) in 384-well microtiter plates and kept in a cell incubator (96% humidity, 5% v/v CO2, 37° C.). On the day of the assay, test compounds in various concentrations are placed for 10 minutes in the wells of the microtiter plate before the agonist [Arg^8]-vasopressin at EC50 concentration is added. The resulting light signal is measured immediately in a luminometer.
(§3) Table 1A below lists individual IC50 values for the compounds of the invention (including racemic mixtures as well as separated enantiomers) that were obtained from cell lines transfected with the human V1a or V2 receptor: […]

[2] = molecular target: T2, human V2 receptor (Homo sapiens, UniProt P30518); test: Cellular in vitro assay for determining vasopressin receptor activity (V2, CRE-luciferase); format: cell-based; conditions: CHO cell line transfected with the human V2 receptor; [Arg8]-vasopressin at EC50 concentration; read-out: IC50 hV2
T2 construct: expressed in transfected cells; host or cells: CHO K1 (ATCC) expressing firefly luciferase under a CRE-responsive promoter
T2 sequence (P30518 whole entry): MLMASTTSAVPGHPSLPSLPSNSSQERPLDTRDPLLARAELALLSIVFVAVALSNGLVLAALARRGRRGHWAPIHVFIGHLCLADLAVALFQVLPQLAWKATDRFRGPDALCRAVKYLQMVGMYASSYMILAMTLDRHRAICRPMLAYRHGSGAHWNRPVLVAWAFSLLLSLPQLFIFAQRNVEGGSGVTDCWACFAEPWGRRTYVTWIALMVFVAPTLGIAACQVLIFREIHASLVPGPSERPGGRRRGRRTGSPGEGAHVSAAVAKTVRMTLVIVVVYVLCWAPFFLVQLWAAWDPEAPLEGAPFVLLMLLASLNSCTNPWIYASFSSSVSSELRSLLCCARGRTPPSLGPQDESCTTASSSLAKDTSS
Protocol: as §1, §2
Vasopressin V2 receptor cell lines:
On the day before the assay, the cells are plated out in culture medium (DMEM/F12, 2% FCS, 2 mM glutamine, 10 mM HEPES) in 384-well microtiter plates and kept in a cell incubator (96% humidity, 5% v/v CO2, 37° C.). On the day of the assay, test compounds in various concentrations and the agonist [Arg^8]-vasopressin at EC50 concentration are added together to the wells, and plates are incubated for 3 hours in a cell incubator. Upon addition of the cell lysis reagent Triton™ and the substrate luciferin, luminescence of firefly luciferase is measured in a luminometer.
as §3

Compound | IC50 [1] [nM] | ratio IC50 hV2/hV1a [1] | IC50 [2] [nM]
CCNC(=O)OCc1nc(Cn2nc(-c3ccc(Cl)cc3)n(C[C@H](OC(=O)NCC)C(F)(F)F)c2=O)nn1-c1ccccc1C(F)(F)F [Example 50, (2S)-3-{3-(4-Chlorophenyl)-1-[(5-{[(ethylcarbamoyl)oxy]methyl}-1-[2-(trifluoromethyl)phenyl]-1H-1,2,4-triazol-3-yl)methyl]-5-oxo-1,5-dihydro-4H-1,2,4-triazol-4-yl}-1,1,1-trifluoropropan-2-yl ethylcarbamate] | 0.95 | 23.0 | 22
O=C1NC(c2nc(Cn3nc(-c4ccc(Cl)cc4)n(C[C@H](O)C(F)(F)F)c3=O)nn2-c2ncccc2OC(F)(F)F)CO1 (mixture of isomers) [Example 117, 5-(4-Chlorophenyl)-2-({5-[2-oxo-1,3-oxazolidin-4-yl]-1-[3-(trifluoromethoxy)pyridin-2-yl]-1H-1,2,4-triazol-3-yl}methyl)-4-[(2S)-3,3,3-trifluoro-2-hydroxypropyl]-2,4-dihydro-3H-1,2,4-triazol-3-one] | 21.5 | 21.9 | 470
CC(=O)NC(COC(C)(C)C)c1nc(Cn2nc(-c3ccc(Cl)cc3)n(C[C@H](O)C(F)(F)F)c2=O)nn1-c1ccccc1Cl (mixture of isomers) [Example 88, N-{2-tert-Butoxy-1-[1-(2-chlorophenyl)-3-({3-(4-chlorophenyl)-5-oxo-4-[(2S)-3,3,3-trifluoro-2-hydroxypropyl]-4,5-dihydro-1H-1,2,4-triazol-1-yl}methyl)-1H-1,2,4-triazol-5-yl]ethyl}acetamide] | 1.5 | 30.3 | 45.5
O=C1NC(c2nc(Cn3nc(-c4ccc(Cl)cc4)n(C[C@H](O)C(F)(F)F)c3=O)nn2-c2ncccc2Cl)CO1 (single isomer, unassigned) [Example 114] | 22.7 | 23.2 | 525
NC1(c2nc(Cn3nc(-c4ccc(Cl)cc4)n(C[C@H](O)C(F)(F)F)c3=O)nn2-c2ccccc2Cl)CC1 [Example 76, 2-{[5-(1-Aminocyclopropyl)-1-(2-chlorophenyl)-1H-1,2,4-triazol-3-yl]methyl}-5-(4-chlorophenyl)-4-[(2S)-3,3,3-trifluoro-2-hydroxypropyl]-2,4-dihydro-3H-1,2,4-triazol-3-one hydrochloride] | 0.48 | 8.3 | 3.95
O=C1CC[C@@H](c2nc(Cn3nc(-c4ccc(Cl)cc4)n(C[C@H](O)C(F)(F)F)c3=O)nn2-c2cnccc2Cl)N1 [Example 123, 5-(4-Chlorophenyl)-2-({1-(4-chloropyridin-3-yl)-5-[(2S)-5-oxopyrrolidin-2-yl]-1H-1,2,4-triazol-3-yl}methyl)-4-[(2S)-3,3,3-trifluoro-2-hydroxypropyl]-2,4-dihydro-3H-1,2,4-triazol-3-one] | 1.1 | 31.5 | 34.5
CCNC(=O)OCc1nc(Cn2nc(-c3ccc(Cl)cc3)n(C[C@H](O)C(F)(F)F)c2=O)nn1-c1cccc(F)c1 [Example 43, [3-({3-(4-Chlorophenyl)-5-oxo-4-[(2S)-3,3,3-trifluoro-2-hydroxypropyl]-4,5-dihydro-1H-1,2,4-triazol-1-yl}methyl)-1-(3-fluorophenyl)-1H-1,2,4-triazol-5-yl]methyl Ethylcarbamate] | 5.59 | 1.1 | 5.93
O=C1CC[C@H](c2nc(Cn3nc(-c4ccc(Cl)cc4)n(C[C@H](O)C(F)(F)F)c3=O)nn2-c2ccccc2Cl)N1 [Example 101, 5-(4-Chlorophenyl)-2-({1-(2-chlorophenyl)-5-[(2R)-5-oxopyrrolidin-2-yl]-1H-1,2,4-triazol-3-yl}methyl)-4-[(2S)-3,3,3-trifluoro-2-hydroxypropyl]-2,4-dihydro-3H-1,2,4-triazol-3-one] | 0.77 | 4.9 | 3.8
COc1ccccc1-n1nc(Cn2nc(-c3ccc(Cl)cc3)n(C[C@H](OC(N)=O)C(F)(F)F)c2=O)nc1C(C)OC(N)=O (single isomer, unassigned) [Example 40] | 5.86 | 1.1 | 6.35
O=C(NCC(F)(F)F)OCc1nc(Cn2nc(-c3ccc(Cl)cc3)n(C[C@H](O)C(F)(F)F)c2=O)nn1-c1cccc(F)c1 [Example 45, [3-({3-(4-Chlorophenyl)-5-oxo-4-[(2S)-3,3,3-trifluoro-2-hydroxypropyl]-4,5-dihydro-1H-1,2,4-triazol-1-yl}methyl)-1-(3-fluorophenyl)-1H-1,2,4-triazol-5-yl]methyl (2,2,2-trifluoroethyl)-carbamate] | 11.2 | 0.5 | 5.13
C[C@@H](OC(N)=O)c1nc(Cn2nc(-c3ccc(Cl)cc3)n(C[C@H](O)C(F)(F)F)c2=O)nn1-c1ncccc1OC(F)(F)F [Example 23, (1R)-1-{3-({3-(4-Chlorophenyl)-5-oxo-4-[(2S)-3,3,3-trifluoro-2-hydroxypropyl]-4,5-dihydro-1H-1,2,4-triazol-1-yl}methyl)-1-[3-(trifluoromethoxy)pyridin-2-yl]-1H-1,2,4-triazol-5-yl}ethyl Carbamate] | 5.4 | 52.8 | 285
NC(=O)OCc1nc(Cn2nc(-c3ccc(Cl)cc3)n(C[C@H](O)C(F)(F)F)c2=O)nn1-c1ccccc1Cl [Example 28, [1-(2-Chlorophenyl)-3-({3-(4-chlorophenyl)-5-oxo-4-[(2S)-3,3,3-trifluoro-2-hydroxypropyl]-4,5-dihydro-1H-1,2,4-triazol-1-yl}methyl)-1H-1,2,4-triazol-5-yl]methyl Carbamate] | 0.43 | 6.0 | 2.57

The next lines start with the values.

IC50 [1] [nM] | ratio IC50 hV2/hV1a [1] | IC50 [2] [nM] | Compound
4.75 | 9.4 | 44.5 | CC(C)(C)OCC(NS(C)(=O)=O)c1nc(Cn2nc(-c3ccc(Cl)cc3)n(C[C@H](O)C(F)(F)F)c2=O)nn1-c1ccccc1Cl (single isomer, unassigned) [Example 84]
3.45 | 37.4 | 129 | CC(=O)NC(COC(C)(C)C)c1nc(Cn2nc(-c3ccc(Cl)cc3)n(C[C@H](O)C(F)(F)F)c2=O)nn1-c1ccccc1Cl (single isomer, unassigned) [Example 89]
0.55 | 6.0 | 3.25 | O=C(NC(CO)c1nc(Cn2nc(-c3ccc(Cl)cc3)n(C[C@H](O)C(F)(F)F)c2=O)nn1-c1ccccc1Cl)C(F)(F)F (single isomer, unassigned) [Example 96]
0.97 | 2.1 | 2 | CS(=O)(=O)NC(CO)c1nc(Cn2nc(-c3ccc(Cl)cc3)n(C[C@H](O)C(F)(F)F)c2=O)nn1-c1ccccc1Cl (single isomer, unassigned) [Example 86]
4.2 | 14.1 | 59 | CC(NC(=O)C(F)(F)F)c1nc(Cn2nc(-c3ccc(Cl)cc3)n(C[C@H](O)C(F)(F)F)c2=O)nn1-c1ccccc1Cl (single isomer, unassigned) [Example 75]
3.75 | 14.0 | 52.5 | CC(=O)NC(C)c1nc(Cn2nc(-c3ccc(Cl)cc3)n(C[C@H](O)C(F)(F)F)c2=O)nn1-c1ccccc1Cl (single isomer, unassigned) [Example 66]
